We go through 5 compounds from US20250313553A1, “ANNULATED 2-AMINO-3-CYANO THIOPHENES AND DERIVATIVES FOR THE TREATMENT OF CANCER” (Boehringer Ingelheim Int'l GmbH Corp., priority 2021, published 2025).

The target of one assay is T1, KRAS (G13D) and SOS1 (Homo sapiens, UniProt P01116, C118S/G13D).
T1 construct: KRAS (G13D) 1-169, N-terminal 6His-tag for purification; 6His (N, cleaved yes); TEV cleavage site
In words: KRAS::SOS1 AlphaScreen binding assay, KRAS G13D. The source says:
This assay can be used to examine the potency with which compounds according to the invention binding to (mutated) KRAS inhibit the protein-protein interaction between SOS1 and (mutated) KRAS e.g., KRAS WT, KRAS G12C, KRAS G12D, KRAS G12V or KRAS G13D. […] Low IC50 values in this assay setting are indicative of strong inhibition of protein-protein interaction between SOS1 and KRAS:
These assays measure the inhibitory effect of compounds on KRAS mutant protein-protein interactions using the Alpha Screen technology by Perkin Elmer. […]
Plates are kept at room temperature in a darkened incubator. After an additional 60 minutes incubation time the signal is measured in a PerkinElmer Envision HTS Multilabel Reader using the AlphaScreen specs from PerkinElmer. […]
As internal control known inhibitors of KRAS mutant::SOS1 interaction can be measured on each compound plate. […]
Background: In Alpha technology, singlet oxygen from a donor bead excites a nearby acceptor bead.

A further assay deals with NCI-H358 cells. In words: NCI-H358 CTG proliferation assay (120 h), assay 1. Format: cell-based. As to conditions: Homo sapiens, 96 well, 2000 cells per well. As to the method: NCI-H358 cells (ATCC No. CRL-5807) are dispensed into white bottom opaque 96 well plates (Perkin Elmer cat no. 5680) at a density of 2000 cells per well in 100 μL RPMI-1640 ATCC-Formulation (Gibco #A10491)+10% FCS (fetal calf serum) (assay 1) or into black 384-well plates, flat and clear bottom (Greiner, PNr. 781091) at a density of 200 cells per well in 60 μl RPMI-1640 ATCC-Formulation (Gibco #A10491)+10% FCS (fetal calf serum) (assay 2). […] Compounds (10 mM stock in DMSO) are added at logarithmic dose series using the HP Digital Dispenser D300 (Tecan) (assay 1) or the ECHO acoustic liquid handler system (Beckman Coulter) (assay 2), normalizing for added DMSO and including DMSO controls. For the T0 time point measurement, untreated cells are analyzed at the time of compound addition. Plates are incubated for 120 h, and cell viability is measured using CellTiter-Glo luminescent cell viability reagent (Promega product code G7570). Viability (stated as percent of control) is defined as relative luminescence units RLU of each well divided by the RLU of cells in DMSO controls. IC50 values are determined from viability measurements by non-linear regression using a four-parameter model.

The test system of a further assay is GP2D cells. Briefly: GP2D proliferation assay (120 h). It is filed as cell-based. The settings on record: colorectal cancer, G12D. As for the experimental part:
GP2D cells (ATCC No. CRL-5807) are dispensed into white 384-well plates, flat and white bottom(Perkin Elmer, 6007680) at a density of 500 cells per well in 40 μl DMEM (Sigma, D6429)+1×GlutaMAX (Gibco, 35050038)+10% FCS (fetal calf serum). […] Compounds (10 mM stock in DMSO) are added at logarithmic dose series using the HP Digital Dispenser D300 (Tecan), including DMSO controls and normalizing for added DMSO. For the T0 time point measurement, untreated cells are analyzed at the time of compound addition. Plates are incubated for 120 h, and cell viability is measured using CellTiter-Glo luminescent cell viability reagent (Promega product code G7570). Viability (stated as percent of control) is defined as relative luminescence units RLU of each well divided by the RLU of cells in DMSO controls. IC50 values are determined from viability measurements by non-linear regression using a four-parameter model.

The term IC50 denotes the concentration that gives 50% inhibition. Lower therefore signals greater potency.

T1 sequence (P01116 1-169 isoform P01116-2 G13D/C118S): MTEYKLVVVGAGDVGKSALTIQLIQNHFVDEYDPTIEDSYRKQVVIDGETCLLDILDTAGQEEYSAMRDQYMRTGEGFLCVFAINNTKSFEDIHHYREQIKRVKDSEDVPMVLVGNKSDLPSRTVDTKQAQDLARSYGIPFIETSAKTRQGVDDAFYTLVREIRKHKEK

Compound `C[C@H]1CN(C)CCN1c1cccc(-c2noc([C@@]3(C)CCCc4sc(N)c(C#N)c43)n2)n1` [Example V-1] returned an IC50 on KRAS (G13D) and SOS1 of 928 nM.
The same measure, in the same setting: with `C[C@H](Oc1cccc(-c2noc([C@@]3(C)CCCc4sc(N)c(C#N)c43)n2)n1)[C@@H]1CCCN1C` [Example V-8] the figure was 176 nM.
For `CC(C)N1CCCN(c2nccc(-c3noc([C@@]4(C)CCCc5sc(N)c(C#N)c54)n3)n2)[C@@H](C)C1` [Example V-9], the IC50 in the assay with NCI-H358 cells came to 0.698 µM.
Same read-out and setting: the same measure for `C[C@H](Oc1nccc(-c2noc([C@@]3(C)CCCc4sc(N)c(C#N)c43)n2)n1)[C@@H]1CCCN1C` [Example V-10]: 5.41 µM.
Turning to `C[C@H](Oc1ccnc(-c2noc([C@@]3(C)CCCc4sc(N)c(C#N)c43)n2)n1)[C@@H]1CCCN1C` [Example V-11], in the assay on GP2D cells, the IC50 turned out to be 152 nM.
